# Laboratory results taken from patent US11667645B2, “Granzyme B directed imaging and therapy” (CytoSite Biopharma Inc., priority 2018, dated 2023).
# Target: Granzyme B (human lymphocytes) (Homo sapiens (Human), UniProt P10144)
# Experiment: human Granzyme B biochemical assay
# Details: Granzyme B (human lymphocytes) 5 nM, substrate Ac-IETD-AFC 200 μM, Cpd incubation with enzyme 30 mins, 22° C., read time 60 mins; read-out: IC50
# Summary of the method: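 Fluorogenic Ac-IETD-AFC cleavage (Ex 400/Em 505 nm) read after 60 min at 22 °C, following 30 min, 22 °C enzyme–compound pre-incubation. Working stocks: enzyme 10 nM in 0.1% BSA buffer, substrate 800 µM, compound 8 points, 3.16-fold from 40 µM. Controls set 0% (DMSO) and 100% (standard inhibitor) inhibition; IC50 fitted.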
# Sequence of Granzyme B (human lymphocytes) (P10144 21-247): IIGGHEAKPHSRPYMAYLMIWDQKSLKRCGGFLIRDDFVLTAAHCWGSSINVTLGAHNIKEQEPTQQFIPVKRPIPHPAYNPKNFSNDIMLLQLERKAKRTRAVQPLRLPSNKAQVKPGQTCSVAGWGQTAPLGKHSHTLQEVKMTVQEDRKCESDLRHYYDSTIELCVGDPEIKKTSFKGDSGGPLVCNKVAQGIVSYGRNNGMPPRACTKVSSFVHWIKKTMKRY
row,Structure (SMILES),IC50 [µM]
1,"CC[C@H](C)[C@H](NC(=O)Cc1nc2ccccc2[nH]1)C(=O)N[C@H]1CCc2cccc3c2N(C1=O)[C@H](C(=O)NCc1c[nH]nn1)C3 [Compound C162, (2S,5S)-5-[(2S,3S)-2-(2-1H-Benzoimidazol-2-yl-acetylamino)-3-methyl-pentanoylamino]-4-oxo-1,2,4,5,6,7-hexahydro-azepino[3,2,1-hi]indole-2-carboxylic acid (1H-[1,2,3]triazol-4-ylmethyl)-amide]",0.001 to 0.3
2,"COC(=O)CNC(=O)[C@@H]1Cc2cccc3c2N1C(=O)[C@@H](NC(=O)[C@@H](NC(C)=O)C(C)C)CC3 [Compound C086, {[(2S,5S)-5-((S)-2-Acetylamino-3-methyl-butyrylamino)-4-oxo-1,2,4,5,6,7-hexahydro-azepino[3,2,1-hi]indole-2-carbonyl]-amino}-acetic acid methyl ester]",> 5
3,"CC[C@H](C)[C@H](NC(=O)COCCF)C(=O)N[C@H]1CCc2cccc3c2N(C1=O)[C@H](C(=O)NCCc1cnn[nH]1)C3 [Compound C120, (2S,5S)-5-{(2S,3S)-2-[2-(2-Fluoro-ethoxy)-acetylamino]-3-methyl-pentanoylamino}-4-oxo-1,2,4,5,6,7-hexahydro-azepino[3,2,1-hi]indole-2-carboxylic acid [2-(3H-[1,2,3]triazol-4-yl)-ethyl]-amide]",> 5
4,"CC[C@H](C)[C@H](NC(=O)COCCF)C(=O)N[C@H]1CCc2cccc3c2N(C1=O)[C@H](C(=O)NCc1cocn1)C3 [Compound C114, (2S,5S)-5-{(2S,3S)-2-[2-(2-Fluoro-ethoxy)-acetylamino]-3-methyl-pentanoylamino}-4-oxo-1,2,4,5,6,7-hexahydro-azepino[3,2,1-hi]indole-2-carboxylic acid (oxazol-4-ylmethyl)-amide]",> 5
5,CC[C@H](C)[C@H](NC(=O)COCCF)C(=O)N[C@H]1CCc2cccc3c2N(C1=O)[C@H](C(=O)NCc1ccsc1)C3 [Compound C109],> 5
6,"CC[C@H](C)[C@H](NC(=O)COCCF)C(=O)N[C@H]1CCc2cccc3c2N(C1=O)[C@H](C(=O)NCc1cccs1)C3 [Compound C106, (2S,5S)-5-{(2S,3S)-2-[2-(2-Fluoro-ethoxy)-acetylamino]-3-methyl-pentanoylamino}-4-oxo-1,2,4,5,6,7-hexahydro-azepino[3,2,1-hi]indole-2-carboxylic acid (thiophen-2-ylmethyl)-amide]",> 5
7,"O=C(Cc1ccccc1)N[C@H](C(=O)N[C@H]1CCc2cccc3c2N(C1=O)[C@H](C(=O)NCc1c[nH]nn1)C3)c1ccccc1 [Compound C020, (2S,5S)-4-Oxo-5-((S)-2-phenyl-2-phenylacetylamino-acetylamino)-1,2,4,5,6,7-hexahydro-azepino[3,2,1-hi]indole-2-carboxylic acid (1H-[1,2,3]triazol-4-ylmethyl)-amide]",> 5
8,"CC[C@H](C)[C@H](NC(=O)COCCF)C(=O)N[C@H]1CCc2cccc3c2N(C1=O)[C@H](C(=O)NCc1nc(O)n[nH]1)C3 [Compound C164, (2S,5S)-5-{(2S,3S)-2-[2-(2-Fluoro-ethoxy)-acetylamino]-3-methyl-pentanoylamino}-4-oxo-1,2,4,5,6,7-hexahydro-azepino[3,2,1-hi]indole-2-carboxylic acid (5-hydroxy-2H-[1,2,4]triazol-3-ylmethyl)-amide]",> 5
9,"CC[C@H](C)[C@H](NC(=O)COCCF)C(=O)N[C@H]1CCc2cccc3c2N(C1=O)[C@H](C(=O)NCc1ccncc1)C3 [Compound C123, (2S,5S)-5-{(2S,3S)-2-[2-(2-Fluoro-ethoxy)-acetylamino]-3-methyl-pentanoylamino}-4-oxo-1,2,4,5,6,7-hexahydro-azepino[3,2,1-hi]indole-2-carboxylic acid (pyridin-4-ylmethyl)-amide]",> 5
